This passage reports IC50 results from patent US10118918B2, “PRMT5 inhibitors and uses thereof” (Epizyme, Inc., priority 2012, dated 2018).

Where only a bound is given, the exact number is not on record here.

Sequence of PRMT5/MEP50 (O14744 other isoform, or with tags, fused parts or gaps): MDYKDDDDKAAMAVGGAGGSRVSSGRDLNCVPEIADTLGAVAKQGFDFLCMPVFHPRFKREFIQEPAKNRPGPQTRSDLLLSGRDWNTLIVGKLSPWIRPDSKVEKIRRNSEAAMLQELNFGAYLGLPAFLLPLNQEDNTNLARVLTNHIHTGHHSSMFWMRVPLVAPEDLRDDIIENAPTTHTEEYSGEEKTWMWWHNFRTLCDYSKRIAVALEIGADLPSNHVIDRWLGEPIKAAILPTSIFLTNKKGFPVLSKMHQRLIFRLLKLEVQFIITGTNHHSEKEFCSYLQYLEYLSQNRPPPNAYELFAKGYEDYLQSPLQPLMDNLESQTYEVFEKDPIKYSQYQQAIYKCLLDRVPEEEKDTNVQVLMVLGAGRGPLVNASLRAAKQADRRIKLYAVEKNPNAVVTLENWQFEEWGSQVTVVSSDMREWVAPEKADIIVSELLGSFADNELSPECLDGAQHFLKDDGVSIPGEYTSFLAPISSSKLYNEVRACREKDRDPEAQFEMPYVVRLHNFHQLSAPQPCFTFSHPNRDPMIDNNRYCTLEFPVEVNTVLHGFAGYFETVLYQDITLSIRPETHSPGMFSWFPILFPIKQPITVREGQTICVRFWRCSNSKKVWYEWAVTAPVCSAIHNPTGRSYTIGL
Sequence of PRMT5/MEP50 (Q9BQA1 other isoform, or with tags, fused parts or gaps partner): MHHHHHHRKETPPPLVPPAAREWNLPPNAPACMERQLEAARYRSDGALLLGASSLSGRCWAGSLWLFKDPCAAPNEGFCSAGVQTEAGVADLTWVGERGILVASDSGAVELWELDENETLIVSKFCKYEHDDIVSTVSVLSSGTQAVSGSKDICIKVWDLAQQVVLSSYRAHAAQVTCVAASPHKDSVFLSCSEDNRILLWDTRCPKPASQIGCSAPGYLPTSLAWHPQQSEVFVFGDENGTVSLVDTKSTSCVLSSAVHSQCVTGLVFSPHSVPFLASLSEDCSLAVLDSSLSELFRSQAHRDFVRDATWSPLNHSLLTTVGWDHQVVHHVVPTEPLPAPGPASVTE

The test addresses PRMT5/MEP50 (Homo sapiens (Human), UniProt O14744). Briefly: PRMT5 Biochemical Assay (PRMT5/MEP50 enzyme assay on peptide substrate, 3H-SAM Flashplate). As to conditions: PRMT5/MEP50 4 nM, 3H-SAM 75 nM, peptide 40 nM. The text has this: S-adenosylmethionine (SAM), S-adenosylhomocysteine (SAH), bicine, KCl, Tween20, dimethylsulfoxide (DMSO), bovine skin gelatin (BSG), and Tris(2-carboxyethyl)phosphine hydrochloride solution (TCEP) were purchased from Sigma-Aldrich at the highest level of purity possible. ^3H-SAM was purchase from American Radiolabeled Chemicals with a specific activity of 80 Ci/mmol. 384-well streptavidin Flashplates were purchased from PerkinElmer.
Peptide representative of human histone H4 residues 1-15 was synthesized with a C-terminal linker-affinity tag motif and a C-terminal amide cap by 21st Century Biochemicals. The peptide was high high-performance liquid chromatography (HPLC) purified to greater than 95% purity and confirmed by liquid chromatography mass spectrometry (LC-MS). The sequence was Ac-[…][K-Biot]-amide (SEQ ID NO.: 3).
Full-length human PRMT5 (NM_006109.3) transcript variant 1 clone was amplified from a fetal brain cDNA library, incorporating flanking 5′ sequence encoding a FLAG tag ([…]) (SEQ ID NO.: 4) fused directly to Ala 2 of PRMT5. Full-length human MEP50 (NM_024102) clone was amplified from a human testis cDNA library incorporating a 5′ sequence encoding a 6-histidine tag (MHHHHHH) (SEQ ID NO.: 5) fused directly to Arg 2 of MEP50. The amplified genes were sublconed into pENTR/D/TEV (Life Technologies) and subsequently transferred by Gateway™ attL x attR recombination to pDEST8 baculvirus expression vector (Life Technologies).
Recombinant baculovirus and Baculovirus-Infected Insect Cells (BIIC) were generated according to Bac-to-Bac kit instructions (Life Technologies) and Wasilko, 2006, respectively. Protein over-expression was accomplished by infecting exponentially growing Spodoptera frugiperda (SF9) cell culture at 1.2×10^6 cell/ml with a 5000 fold dilution of BIIC stock. Infections were carried out at 27° C. for 72 hours, harvested by centrifugation, and stored at −80° C. for purification.
Flag-PRMT5/6His-MeP50 was eluted with 300 mM Imidazole in the same buffer. The purity of recovered protein was 87%. Reference: Wasilko, D. J. and S. E. Lee: “TIPS: titerless infected-cells preservation and scale-up” Bioprocess J., 5 (2006), pp. 29-32.
General Procedure for PRMT5/MEP50 Enzyme Assays on Peptide Substrates.
The assays were all performed in a buffer consisting of 20 mM Bicine (pH=7.6), 1 mM TCEP, 0.005% BSG, and 0.002% Tween20, prepared on the day of use. Compounds in 100% DMSO (1 ul) were spotted into a polypropylene 384-well V-bottom plates (Greiner) using a Platemate Plus outfitted with a 384-channel head (Thermo Scientific). DMSO (1 ul) was added to Columns 11, 12, 23, 24, rows A-H for the maximum signal control and 1 ul of SAH, a known product and inhibitor of PRMT5/MEP50, was added to columns 11, 12, 23, 24, rows I-P for the minimum signal control. A cocktail (40 ul) containing the PRMT5/MEP50 enzyme and the peptide was added by Multidrop Combi (Thermo-Fisher). The compounds were allowed to incubate with PRMT5/MEP50 for 30 min at 25 degrees Celsius, then a cocktail (10 ul) containing ^3H-SAM was added to initiate the reaction (final volume=51 ul). The final concentrations of the components were as follows: PRMT5/MEP50 was 4 nM, ^3H-SAM was 75 nM, peptide was 40 nM, SAH in the minimum signal control wells was 100 uM, and the DMSO concentration was 1%. The assays were stopped by the addition of non-radioactive SAM (10 ul) to a final concentration of 600 uM, which dilutes the ^3H-SAM to a level where its incorporation into the peptide substrate is no longer detectable. 50 ul of the reaction in the 384-well polypropylene plate was then transferred to a 384-well Flashplate and the biotinylated peptides were allowed to bind to the streptavidin surface for at least 1 hour before being washed three times with 0.1% Tween20 in a Biotek ELx405 plate washer. […]
Regarding `C[C@@H](Oc1cccc2cccnc12)C(=O)NC[C@H](O)CN1Cc2ccccc2C1` [compound 5, (R)—N—((S)-2-hydroxy-3-(isoindolin-2-yl)propyl)-2-(quinolin-8-yloxy)propanamide], the half-maximal inhibitory concentration (IC50) (commonly the concentration that inhibits the measured activity by half) is less than 0.1 µM.

Regarding `O=C(COc1ccccc1-c1cc[nH]n1)NCC(O)CN1Cc2ccccc2C1` (stereo not shown) [compound 7], the IC50 was in the range of 0.101 to 1 µM.

Take `O=C(NCC(O)CN1Cc2ccccc2C1)c1cccc(-c2ccccn2)c1` (stereo not shown) [compound 13, N-(2-hydroxy-3-(isoindolin-2-yl)propyl)-3-(pyridin-2-yl)benzamide]: the IC50 fell in the range of 0.101 to 1 µM.

As to `CN(C)S(=O)(=O)c1ccccc1OCC(=O)NCC(O)CN1Cc2ccccc2C1` (stereo not shown) [compound 15, 2-(2-(N,N-dimethylsulfamoyl)phenoxy)-N-(2-hydroxy-3-(isoindolin-2-yl)propyl)acetamide], the half-inhibitory concentration (IC50) was less than 0.1 µM.

Take `O=C(COc1cccc2cccnc12)NCC(O)CN1Cc2ccccc2C1` (stereo not shown) [compound 19, N-(2-hydroxy-3-(isoindolin-2-yl)propyl)-2-(quinolin-8-yloxy)acetamide]: the IC50 fell in the range of 0.101 to 1 µM.

With `O=C(NC[C@H](O)CN1Cc2ccccc2C1)c1cccc(NC2CCOCC2)c1` [compound 28], the IC50 is less than 0.1 µM.

Regarding `O=C(NC[C@H](O)CN1Cc2ccccc2C1)c1cc(NC2CCOCC2)ncn1` [compound 29], the half-maximal inhibitory concentration (IC50) was less than 0.1 µM.

For the compound `Cc1nc(NC2COC2)cc(C(=O)NC[C@H](O)CN2Cc3ccccc3C2)n1` [compound 35], the IC50 is 0.101 to 1 µM.

For the compound `O=C(NC[C@H](O)CN1Cc2ccccc2C1)c1cc(NC2COC2)nc(C(F)(F)F)n1` [compound 36], the IC50 fell in the range of 0.101 to 1 µM.

Turning to `O=C(CCc1nc2ccccc2[nH]1)NCC(O)CN1Cc2ccccc2C1` (stereo not shown) [compound 37], the IC50 is 0.101 to 1 µM.

For the compound `O=C(NC[C@H](O)CN1Cc2ccccc2C1)c1cc(NC2COC2)nc(N2CCOCC2)n1` [compound 38], the 50% inhibitory concentration (IC50) was less than 0.1 µM.

`CC(=O)N1CCC(Nc2cc(C(=O)NC[C@H](O)CN3Cc4ccccc4C3)ccn2)CC1` [compound 40]: the IC50 was less than 0.1 µM.

Turning to `O=C(NC[C@H](O)CN1CCc2ccccc21)c1cc(NC2COC2)ncn1` [compound 42], the half-inhibitory concentration (IC50) is greater than 10 µM.

For the compound `CC(=O)N1CCC(Nc2cc(C(=O)NC[C@H](O)CN3CCc4ccccc43)ncn2)CC1` [compound 43], the IC50 was greater than 10 µM.

On to `CC(=O)N1CCC(Nc2cc(C(=O)NC[C@H](O)CN3CCc4ccccc43)ccn2)CC1` [compound 44], for which the concentration for half-maximal inhibition (IC50) was greater than 10 µM.

Turning to `O=C(NC[C@H](O)CN1CCCCc2ccccc21)c1cc(NC2COC2)ncn1` [compound 45], the IC50 was greater than 10 µM.

As to `CC(=O)N1CC(Nc2cc(C(=O)NC[C@H](O)CN3CCCCc4ccccc43)ncn2)C1` [compound 46], the IC50 is greater than 10 µM.

For `CC(=O)N1CCC(Nc2cc(C(=O)NC[C@H](O)CN3CCCCc4ccccc43)ncn2)CC1` [compound 47], the half-maximal inhibitory concentration (IC50) was in the range of 1 to 10 µM.

Turning to `O=C(NC[C@H](O)CN1CCCc2ccccc2C1)c1cc(NC2COC2)ncn1` [compound 48], the IC50 is greater than 10 µM.

In the case of `CC(=O)N1CC(Nc2cc(C(=O)NC[C@H](O)CN3CCCc4ccccc4C3)ncn2)C1` [compound 49], the 50% inhibitory concentration (IC50) was 1 to 10 µM.

As for `CC(=O)N1CCC(Nc2cc(C(=O)NC[C@H](O)CN3CCCc4ccccc4C3)ncn2)CC1` [compound 50], the half-maximal inhibitory concentration (IC50) was greater than 10 µM.

Consider “N-(2-hydroxy-3-(isoindolin-2-yl)propyl)-2-((4-methyl-3,4-dihydro-2H-benzo[b][1,4]oxazin-5-yl)oxy)acetamide [compound 10]”, for which the half-maximal inhibitory concentration (IC50) is 0.101 to 1 µM.
